ChEMBL document CHEMBL5236632, “Membrane-Active Nonivamide Derivatives as Effective Broad-Spectrum Antimicrobials: Rational Design, Synthesis, and Biological Evaluation” (J Med Chem, 2022)
≈ marks a conversion by molar mass, not a printed value. Calls of active or inactive are those of the source. No cut-off for these calls is given here.

Legend:
[1] = tested on: Staphylococcus aureus; experiment: Antibacterial activity against Staphylococcus aureus ATCC 29213 assessed as inhibition of visible growth measured after 18 to 24 hrs by broth dilution method; type: functional; details: time 18-24 hrs
[2] = tested on: Staphylococcus aureus; experiment: Antibacterial activity against methicillin-resistant Staphylococcus aureus NCTC 10442 assessed as inhibition of visible growth measured after 18 to 24 hrs by broth dilution method; type: functional; details: time 18-24 hrs
[3] = tested on: Staphylococcus aureus; experiment: Antibacterial activity against methicillin-resistant Staphylococcus aureus N315 assessed as inhibition of visible growth measured after 18 to 24 hrs by broth dilution method; type: functional; details: time 18-24 hrs
[4] = tested on: Escherichia coli; experiment: Antibacterial activity against Escherichia coli ATCC 25922 assessed as inhibition of visible growth measured after 18 to 24 hrs by broth dilution method; type: functional; details: time 18-24 hrs
[5] = Haemolytic activity in rabbit red blood cells incubated for 60 mins by k multi-mode reader relative to control; type: toxicity, cell-based, Oryctolagus cuniculus, Erythrocyte; details: rabbit red blood cells
[6] = Selectivity ratio, HC50 for hemolytic activity in rabbit RBC to MIC for antibacterial activity against Staphylococcus aureus ATCC 29213; type: toxicity; details: rabbit red blood cells
[7] = Selectivity ratio, HC50 for hemolytic activity in rabbit RBC to MIC for antibacterial activity against methicillin-resistant Staphylococcus aureus NCTC 10442; type: toxicity; details: rabbit red blood cells
[8] = Selectivity ratio, HC50 for hemolytic activity in rabbit RBC to MIC for antibacterial activity against methicillin-resistant Staphylococcus aureus N315; type: toxicity; details: rabbit red blood cells
[9] = tested on: Cell membrane; experiment: Induction of outer membrane permeability in Escherichia coli ATCC 25922 assessed as increase fluoresence intensity at 4 to 8 times of MIC measured for 60 mins by NPN uptake assay; type: subcellular
[10] = tested on: Cell membrane; experiment: Induction of membrane depolarization in Staphylococcus aureus ATCC 29213 assessed as increase in fluorescence intensity at 4 to 8 times MIC measured for 60 mins by DiSC3(5) dye based fluorescence method; type: subcellular
[11] = tested on: Cell membrane; experiment: Induction of membrane depolarization in Escherichia coli ATCC 25922 assessed as increase in fluorescence intensity at 4 to 8 times MIC measured for 60 mins by DiSC3(5) dye based fluorescence method; type: subcellular

Structure (SMILES)	MIC [1]	MIC [2]	MIC [3]	MIC [4]	HC50 at 1 h [5]	selectivity ratio [6]	selectivity ratio [7]	selectivity ratio [8]	Activity [9]	Activity [10]	Activity [11]
CCCCCCCCC(=O)NCc1ccc(OCC(=O)N[C@@H](CCCNC(=N)N)C(=O)OC)c(OC)c1	25 mg/L (≈ 47.9 µM)	25 mg/L (≈ 47.9 µM)	50 mg/L (≈ 95.8 µM)	> 50 mg/L	> 200 µg/mL	> 4	> 4	> 4			
COc1cc(CNC(=O)CCCC/C=C/C(C)C)ccc1OCCCCCCN	> 50 mg/L	> 50 mg/L	> 50 mg/L	> 50 mg/L	> 200 µg/mL						
CCCCCCCCC(=O)NCc1ccc(OCCCCCCCCCCNC(=N)N)c(OC)c1	6.25 mg/L (≈ 12.7 µM)	6.25 mg/L (≈ 12.7 µM)	6.25 mg/L (≈ 12.7 µM)	> 50 mg/L	> 200 µg/mL	> 32	> 32	> 32			
COc1cc(CNC(=O)CCCC/C=C/C(C)C)ccc1OCCCCCCNC(=N)N	6.25 mg/L (≈ 14 µM)	3.12 mg/L (≈ 7 µM)	3.12 mg/L (≈ 7 µM)	> 50 mg/L	> 200 µg/mL	> 32	> 32	> 32			
COc1cc(CNC(=O)CCCC/C=C/C(C)C)ccc1OCCCCNC(=N)N	3.12 mg/L (≈ 7.47 µM)	3.12 mg/L (≈ 7.47 µM)	6.25 mg/L (≈ 14.9 µM)	50 mg/L (≈ 119 µM)	> 200 µg/mL	> 32	> 32	> 32			
CCCCCCCCC(=O)NCc1ccc(O)c(O)c1	> 50 mg/L	> 50 mg/L	> 50 mg/L	> 50 mg/L	> 200 µg/mL						
CCCCCCCCC(=O)NCc1ccc(OCCNC(=N)N)c(OC)c1	50 mg/L (≈ 132 µM)	25 mg/L (≈ 66 µM)	25 mg/L (≈ 66 µM)	> 50 mg/L	> 200 µg/mL	> 4	> 4	> 4			
CCCCCCCCC(=O)NCc1ccc(OCC(=O)N[C@@H](CCCNC(=N)N)C(=O)N[C@@H](CCCNC(=N)N)C(=O)N[C@@H](CCCNC(=N)N)C(=O)OC)c(OC)c1	> 50 mg/L	50 mg/L (≈ 59.9 µM)	> 50 mg/L	> 50 mg/L	> 200 µg/mL						
CCCCCCCCC(=O)NCc1ccc(OCCCCNCC)c(OC)c1	> 50 mg/L	> 50 mg/L	> 50 mg/L	> 50 mg/L	> 200 µg/mL						
CCCCCCCCC(=O)NCc1ccc(OCCCCN(CCCN(C)C)CCCN(C)C)c(OC)c1	> 50 mg/L	> 50 mg/L	> 50 mg/L	> 50 mg/L	> 200 µg/mL						
CCCCCCCCC(=O)NCc1ccc(OCCCCNC(=N)N)c(OCCCCNC(=N)N)c1	6.25 mg/L (≈ 12.4 µM)	3.12 mg/L (≈ 6.18 µM)	3.12 mg/L (≈ 6.18 µM)	50 mg/L (≈ 98.9 µM)	> 200 µg/mL	> 32	> 32	> 32			
CCCCCCCCC(=O)NCc1ccc(OCCCCCCNCCN(CCNC(=N)N)CCNC(=N)N)c(OCCCCCCNCCN(CCNC(=N)N)CCNC(=N)N)c1	1.56 mg/L (≈ 1.73 µM)	1.56 mg/L (≈ 1.73 µM)	1.56 mg/L (≈ 1.73 µM)	12.5 mg/L (≈ 13.8 µM)	> 200 µg/mL	> 128	> 128	> 128			
CCCCCCCCC(=O)NCc1ccc(OCCCCCCNCCN(CCN)CCN)c(OC)c1	3.12 mg/L (≈ 5.99 µM)	3.12 mg/L (≈ 5.99 µM)	3.12 mg/L (≈ 5.99 µM)	> 50 mg/L	> 200 µg/mL	> 64	> 64	> 64			
CCCCCCCCC(=O)NCc1ccc(OCCCCNC(=N)N)c(OC)c1	12.5 mg/L (≈ 30.7 µM)	6.25 mg/L (≈ 15.4 µM)	6.25 mg/L (≈ 15.4 µM)	> 50 mg/L	> 200 µg/mL	> 16	> 16	> 16			
CCCCCCCCC(=O)NCc1ccc(OCCCCN(CC)CC)c(OC)c1	> 50 mg/L	> 50 mg/L	> 50 mg/L	> 50 mg/L	> 200 µg/mL						
COc1cc(CNC(=O)CCCC/C=C/C(C)C)ccc1OCCCCCCNCCN(CCNC(=N)N)CCNC(=N)N	6.25 mg/L (≈ 10.1 µM)	3.12 mg/L (≈ 5.06 µM)	3.12 mg/L (≈ 5.06 µM)	50 mg/L (≈ 80.9 µM)	> 200 µg/mL	> 32	> 32	> 32			
CCCCCCCCC(=O)NCc1ccc(OCCCNC(=N)N)c(OC)c1	25 mg/L (≈ 63.7 µM)	12.5 mg/L (≈ 31.8 µM)	12.5 mg/L (≈ 31.8 µM)	> 50 mg/L	> 200 µg/mL	> 8	> 8	> 8			
CCCCCCCCC(=O)NCc1ccc(OCCCCCCCCCCCCNC(=N)N)c(OC)c1	> 50 mg/L	25 mg/L (≈ 48.2 µM)	25 mg/L (≈ 48.2 µM)	> 50 mg/L	> 200 µg/mL						
CCCCCCCCC(=O)NCc1ccc(OCCCCCCNC(=N)N)c(OC)c1	3.12 mg/L (≈ 7.19 µM)	1.56 mg/L (≈ 3.59 µM)	3.12 mg/L (≈ 7.19 µM)	> 50 mg/L	> 200 µg/mL	> 64	> 64	> 64			
CCCCCCCCC(=O)NCc1ccc(OCCCCN)c(OC)c1	> 50 mg/L	> 50 mg/L	> 50 mg/L	> 50 mg/L	> 200 µg/mL						
CCCCCCCCC(=O)NCc1ccc(OCCCCCCN)c(OC)c1	> 50 mg/L	> 50 mg/L	> 50 mg/L	> 50 mg/L	> 200 µg/mL						
CCCCCCCCC(=O)NCc1ccc(OCCCCCNC(=N)N)c(OC)c1	6.25 mg/L (≈ 14.9 µM)	6.25 mg/L (≈ 14.9 µM)	6.25 mg/L (≈ 14.9 µM)	50 mg/L (≈ 119 µM)	> 200 µg/mL	> 32	> 32	> 32			
COc1cc(CNC(=O)CCCC/C=C/C(C)C)ccc1O [CAPSAICIN]	> 50 mg/L	> 50 mg/L	> 50 mg/L	> 50 mg/L	> 200 µg/mL				inactive	inactive	inactive
CCCCCCCCC(=O)NCc1ccc(OCCCCCCCCNC(=N)N)c(OC)c1	1.56 mg/L (≈ 3.37 µM)	1.56 mg/L (≈ 3.37 µM)	1.56 mg/L (≈ 3.37 µM)	> 50 mg/L	> 200 µg/mL	> 128	> 128	> 128			
CCN(CC)CCCCOc1ccc(CNC(=O)CCCC/C=C/C(C)C)cc1OC	> 50 mg/L	> 50 mg/L	> 50 mg/L	> 50 mg/L	> 200 µg/mL						
